Patent publication US20230391748A1, “BICYCLIC INHIBITORS OF IRAK” (priority 2022, published 2023)

What was measured:
IL23p19 in THP-1 Cells = experiment: LPS Induced IL23p19 in THP-1 Cells (with IFNγ Primed) Assay; assay type: cell-based; conditions: Homo sapiens, THP-1, 18 h, read-out: IL23 (THP, LPS) (IC50, μM)
How it was run: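 THP-1 cells (50K/well) primed with IFNγ (50 ng/mL) about 18 h, then given compound and stimulated with LPS for 18 h at 37 °C. Secreted IL-23p19 measured by sandwich ELISA with chemiluminescent read-out, giving EC50. Cell Titer Glo used on the remaining cells for toxicity.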

IRAK4 = IRAK4 (Homo sapiens (Human), UniProt Q9NWZ3); experiment: IRAK4 ADP-Glo Assay; assay type: biochemical; conditions: MBP substrate
Chain of IRAK4 (Q9NWZ3 whole entry): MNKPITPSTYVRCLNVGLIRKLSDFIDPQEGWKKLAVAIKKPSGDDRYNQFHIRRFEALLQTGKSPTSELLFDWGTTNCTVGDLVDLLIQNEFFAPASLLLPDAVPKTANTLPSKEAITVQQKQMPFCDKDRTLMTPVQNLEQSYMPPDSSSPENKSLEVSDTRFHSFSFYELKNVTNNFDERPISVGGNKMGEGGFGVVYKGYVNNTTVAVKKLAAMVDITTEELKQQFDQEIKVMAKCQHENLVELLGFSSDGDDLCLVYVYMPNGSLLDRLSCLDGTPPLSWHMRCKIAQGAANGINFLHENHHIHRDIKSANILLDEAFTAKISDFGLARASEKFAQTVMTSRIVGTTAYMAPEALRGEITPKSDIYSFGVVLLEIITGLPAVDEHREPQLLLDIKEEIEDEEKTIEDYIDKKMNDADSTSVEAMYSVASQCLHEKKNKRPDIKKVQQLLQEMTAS
How it was run: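 Human IRAK4 kinase reaction with MBP substrate plus ATP in Tris-HCl/MgCl2/BSA/DTT buffer, pH 7.4, run 60 min at room temperature or 30 min at 30 °C. ADP formed was measured by ADP-Glo luminescence after ATP depletion (40 min) and detection reagent (30 min).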

[1] = tested on: TNF-α in Human Primary Monocyte-Derived Dendritic Cells; experiment: Gardiquimod-Induced TNF-α in Human Primary Monocyte-Derived Dendritic Cells; assay type: cell-based; conditions: Dendritic cell, IFNγ-primed monocyte-derived dendritic cells, 4 μg/ml Gardiquimod, 6 hours, TNF-α ELISA, read-out: TNFα (DC, GARD) (IC50)
How it was run: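 Monocytes differentiated 7 days with GM-CSF and IL-4, then primed 24 h with 50 ng/ml IFN-γ. Compound added 1 h before 6 h stimulation with 4 μg/ml Gardiquimod, 0.5% DMSO final. Supernatant TNF-α measured by chemiluminescent ELISA; EC50 from curve fitting.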

TNF-α in human PBMCs = experiment: R848-induced TNF-α in human PBMCs Assay; assay type: cell-based; conditions: Homo sapiens, PBMC, 4 h, read-out: TNFα (PBMC, R848) (IC50, μM)
How it was run: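 Human PBMCs at 200K/well were pretreated with compound, then R848-stimulated for 4 h at 37 °C, 5% CO2. Supernatant TNF-α quantified by chemiluminescent ELISA; EC50 from curve fitting.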

Compound | IC50 (IL23p19 in THP-1 Cells) | IC50 (IRAK4) | IC50 [1] | IC50 (TNF-α in human PBMCs)
CC(C)Oc1cc2c(OC[C@@H]3CCC(=O)N3)ncc(C#C[C@H]3CC[C@@](C)(O)CC3)c2cc1C(N)=O [Compound I-23, 4-(((1s,4R)-4-hydroxy-4-methylcyclohexyl)ethynyl)-7-isopropoxy-1-(((S)-5-oxopyrrolidin-2-yl)methoxy)isoquinoline-6-carboxamide] | 0.712 µM | 11.4 nM | 566 nM | 2.12 µM
CC(C)Oc1cc2c(O[C@@H]3CCCN(C(=O)CC#N)C3)ncc(C#CC3(O)CCOCC3)c2cc1C(N)=O [Compound I-91, (R)-1-((1-(2-cyanoacetyl)piperidin-3-yl)oxy)-4-((4-hydroxytetrahydro-2H-pyran-4-yl)ethynyl)-7-isopropoxyisoquinoline-6-carboxamide] | 10.2 µM | 20.7 nM | 15400 nM | 3.76 µM
CC(C)Oc1cc2c(O[C@@H]3CCCN(C(=O)CC#N)C3)ncc(C#CC3CCN(C)CC3)c2cc1C(N)=O [Compound I-97, (R)-1-((1-(2-cyanoacetyl)piperidin-3-yl)oxy)-7-isopropoxy-4-((1-methylpiperidin-4-yl)ethynyl)isoquinoline-6-carboxamide] | 1.98 µM | 15.4 nM | 250 nM | 0.752 µM
CC(C)Oc1cc2c(OC[C@@H]3CCC(=O)N3)ncc(C#C[C@H]3C[C@@H](N(C)C)C3)c2cc1C(N)=O [Compound I-31, 4-((cis-3-(dimethylamino)cyclobutyl)ethynyl)-7-isopropoxy-1-(((S)-5-oxopyrrolidin-2-yl)methoxy)isoquinoline-6-carboxamide] | 0.136 µM | 3.5 nM | 89.8 nM | 0.0637 µM
CNC(=O)N1CC(C#Cc2cnc(OC[C@@H]3CCC(=O)N3)c3cc(OC(C)C)c(C(N)=O)cc23)C1 [Compound I-29, (S)-7-isopropoxy-4-((1-(methylcarbamoyl)azetidin-3-yl)ethynyl)-1-((5-oxopyrrolidin-2-yl)methoxy)isoquinoline-6-carboxamide] | 4.25 µM | 5.5 nM | 1750 nM | 0.686 µM
CC(C)Oc1cc2c(OC[C@@H]3CCC(=O)N3)ncc(C#CC3CCN(C(=O)OC(C)(C)C)CC3)c2cc1C(N)=O [Compound I-15, tert-butyl (S)-4-((6-carbamoyl-7-isopropoxy-1-((5-oxopyrrolidin-2-yl)methoxy)isoquinolin-4-yl)ethynyl)piperidine-1-carboxylate] | 0.525 µM | 15.9 nM | 71.9 nM | 0.0874 µM
CC(C)Oc1cc2c(O[C@@H]3CCCN(C(=O)CC#N)C3)ncc(-c3cnn(C4CCN(C)CC4)c3)c2cc1C(N)=O [Compound I-123, (R)-1-((1-(2-cyanoacetyl)piperidin-3-yl)oxy)-7-isopropoxy-4-(1-(1-methylpiperidin-4-yl)-1H-pyrazol-4-yl)isoquinoline-6-carboxamide] | 4.9 µM | 19.2 nM | 217 nM | 0.145 µM
CC(C)Oc1cc2c(OC[C@@H]3CC(F)(F)C(=O)N3)ncc(-c3cnn(CC4CCOCC4)c3)c2cc1C(N)=O [Compound I-71, (S)-1-((4,4-difluoro-5-oxopyrrolidin-2-yl)methoxy)-7-isopropoxy-4-(1-((tetrahydro-2H-pyran-4-yl)methyl)-1H-pyrazol-4-yl)isoquinoline-6-carboxamide] | 0.848 µM | 6.4 nM | 148 nM | 0.174 µM
CC(C)Oc1cc2c(OC[C@@H]3CC(F)(F)C(=O)N3)ncc(C#CC3CNC3)c2cc1C(N)=O [Compound I-63, (S)-4-(azetidin-3-ylethynyl)-1-((4,4-difluoro-5-oxopyrrolidin-2-yl)methoxy)-7-isopropoxyisoquinoline-6-carboxamide] | 5.9 µM | 2.8 nM | 523 nM | 1.21 µM
CC(C)Oc1cc2c(OC[C@@H]3CCC(=O)N3)ncc(C#CC(C)(C)CO)c2cc1C(N)=O [Compound I-5, (S)-4-(4-hydroxy-3,3-dimethylbut-1-yn-1-yl)-7-isopropoxy-1-((5-oxopyrrolidin-2-yl)methoxy)isoquinoline-6-carboxamide] | 6.51 µM | 120 nM | 488 nM | 0.433 µM
CC(C)Oc1cc2c(OC[C@@H]3CCC(=O)N3)ncc(C#CC3CN(C(=O)OC(C)(C)C)C3)c2cc1C(N)=O [Compound I-24, tert-butyl (S)-3-((6-carbamoyl-7-isopropoxy-1-((5-oxopyrrolidin-2-yl)methoxy)isoquinolin-4-yl)ethynyl)azetidine-1-carboxylate] | 0.125 µM | 8.1 nM | 22.4 nM | 0.0763 µM
CC(C)Oc1cc2c(O[C@@H]3CCCN(C(=O)CC#N)C3)ncc(C#CC3(O)CCCC3)c2cc1C(N)=O [Compound I-88, (R)-1-((1-(2-cyanoacetyl)piperidin-3-yl)oxy)-4-((1-hydroxycyclopentyl)ethynyl)-7-isopropoxyisoquinoline-6-carboxamide] | 2.07 µM | 29.7 nM | 696 nM | 0.903 µM
CC(C)Oc1cc2c(OC[C@@H]3CC(F)(F)C(=O)N3)ncc(C#CCC3CCOCC3)c2cc1C(N)=O [Compound I-50, (S)-1-((4,4-difluoro-5-oxopyrrolidin-2-yl)methoxy)-7-isopropoxy-4-(3-(tetrahydro-2H-pyran-4-yl)prop-1-yn-1-yl)isoquinoline-6-carboxamide] | 1.62 µM | 4.8 nM | 230 nM | 0.115 µM
CC(C)Oc1cc2c(O[C@@H]3CCCN(C(=O)CC#N)C3)ncc(-c3cnn(C4CCN(C(=O)OC(C)(C)C)CC4)c3)c2cc1C(N)=O [Compound I-121, tert-butyl (R)-4-(4-(6-carbamoyl-1-((1-(2-cyanoacetyl)piperidin-3-yl)oxy)-7-isopropoxyisoquinolin-4-yl)-1H-pyrazol-1-yl)piperidine-1-carboxylate] | 1.9 µM | 12.9 nM | 1020 nM | 1.76 µM
CC(C)Oc1cc2c(OC[C@@H]3CC(F)(F)C(=O)N3)ncc(Br)c2cc1C(N)=O [Compound I-2, (S)-4-bromo-1-((4,4-difluoro-5-oxopyrrolidin-2-yl)methoxy)-7-isopropoxyisoquinoline-6-carboxamide] | 5.53 µM | 4.4 nM | 5340 nM | 1.15 µM
CC(C)Oc1cc2c(O[C@@H]3CCCN(C(=O)CC#N)C3)ncc(C#CC3CCNCC3)c2cc1C(N)=O [Compound I-96, (R)-1-((1-(2-cyanoacetyl)piperidin-3-yl)oxy)-7-isopropoxy-4-(piperidin-4-ylethynyl)isoquinoline-6-carboxamide] | 7.84 µM | 8 nM | 1170 nM | 1.71 µM
CC(C)Oc1cc2c(OC[C@@H]3CC(F)(F)C(=O)N3)ncc(-c3cnn([C@H]4C[C@@H](N(C)C)C4)c3)c2cc1C(N)=O [Compound I-73, 1-(((S)-4,4-difluoro-5-oxopyrrolidin-2-yl)methoxy)-4-(1-(cis-3-(dimethylamino)cyclobutyl)-1H-pyrazol-4-yl)-7-isopropoxyisoquinoline-6-carboxamide] | 1.04 µM | 3 nM | 259 nM | 0.203 µM
CC(C)Oc1cc2c(OC[C@@H]3CCC(=O)N3)ncc(-c3cnn(C4CCOCC4)c3)c2cc1C(N)=O [Compound I-35, (S)-7-isopropoxy-1-((5-oxopyrrolidin-2-yl)methoxy)-4-(1-(tetrahydro-2H-pyran-4-yl)-1H-pyrazol-4-yl)isoquinoline-6-carboxamide] | 7.52 µM | 25.7 nM | 1620 nM | 1.3 µM
CCO[C@H]1CC[C@@H](C#Cc2cnc(O[C@@H]3CCCN(C(=O)CC#N)C3)c3cc(OC(C)C)c(C(N)=O)cc23)CC1 [Compound I-99, 1-(((R)-1-(2-cyanoacetyl)piperidin-3-yl)oxy)-4-((cis-4-ethoxycyclohexyl)ethynyl)-7-isopropoxyisoquinoline-6-carboxamide] | 0.483 µM | 23.1 nM | 366 nM | 0.555 µM
CC(C)Oc1cc2c(OC[C@@H]3CC(F)(F)C(=O)N3)ncc(C#C[C@H]3CC[C@@](C)(O)CC3)c2cc1C(N)=O [Compound I-61, 1-(((S)-4,4-difluoro-5-oxopyrrolidin-2-yl)methoxy)-4-(((1s,4R)-4-hydroxy-4-methylcyclohexyl)ethynyl)-7-isopropoxyisoquinoline-6-carboxamide] | 0.102 µM | 8.8 nM | 13 nM | 0.0807 µM
CC(C)Oc1cc2c(O[C@@H]3CCCNC3)ncc(-c3cnn(C4CC4)c3)c2cc1C(N)=O [Compound I-108, (R)-4-(1-cyclopropyl-1H-pyrazol-4-yl)-7-isopropoxy-1-(piperidin-3-yloxy)isoquinoline-6-carboxamide] | 10 µM | 142 nM | 1370 nM | 5.5 µM
